In patent US6599541B1, “Composition for treatment of drug resistant bacterial infections and a method of treating drug resistant bacterial infections” (priority 1999, dated 2003):
≈ marks a conversion by molar mass, not a printed value. Where “and” joins values, the source holds several entries; their conditions need not be identical. Equal values may be shown once.

Columns and labels:
Staphylococcus aureus [1] = experiment: Broth Macro Dilution Test, MIC and MBC; type: cell-based; conditions: Example 12: strain from non-healing burn wound swab culture, antibiotic alone
Experimental: This was done by estimation of the Minimum Inhibitory Concentration (MIC) and Minimum Bactericidal Concentration (MBC) on the selected isolates by a Broth Macro Dilution Test.
Cation Supplemented Mueller Hinton Broth was used as medium for all organisms excepting for β haemolytic streptococci for which, Todd Hewit's Broth was used as medium.
The following concentrations of antibiotics were tested to determine MIC and MBC.
A minimum inhibitory concentration is the lowest level of antibiotic needed to cause an inhibition to bacterial growth in culture medium whereas, the minimum bactericidal concentration is the lowest concentration of antibiotic to achieve a 100% killing of bacteria. Thus, these two values are the practical indices of intensity of bacterial resistance to a given antibiotic. On the other hand, a break-even point of any antibiotic indicates the attainable blood levels after an administration of full dose, in human/animal body. Thus, this point indicates the practical dosage of administering any given antibiotic effectively and beyond this point, even if an antibiotic is found to act effectively in experimental situation—such dose cannot be administered in a clinical situation.

Staphylococcus aureus [2] = experiment: Broth tube test of NE with antibiotic at break point, percentage of killing; type: cell-based; conditions: Example 12 strain; antibiotic with NE, uniform for all the concentrations of NE
Experimental: Since all the study isolates are resistant to the concerned antibiotics, each antibiotic is taken at its breakpoint concentration, (the highest serum concentration of that particular antibiotic reached after the maximum therapeutic dose in-vivo). The break points for various antibiotics are as follows:
Preparation of Neem Extract: Stock solution of neem extract (1 mg/ml) was prepared, filtered and autoclaved. It was used in 4 concentrations—1000 μg/ml; 500 μg/ml; 250 μg/ml; 125 μg/ml.
A set of four tubes with variable concentrations of the extract is prepared and to each of these tubes, the break point concentration of antibiotics is added. Now, these sets are inoculated with the study isolate in the same manner as per the broth dilution procedure. A set of six controls is inoculated with each isolate—in parallel with the main experiment.
2. Only antibiotic solution
3. Medium and antibiotic solution with inoculum
5. Only Neem extract at 250 μg/ml
6. Medium with Neem Extract and inoculum
Reading the test All the tests and control tubes are observed for visible turbidity of growth first. Since all the study isolates were earlier confirmed to be resistant to the antibiotics, the bacterial growth is expected at the breakpoint concentration of the antibiotic. Any reduction in the turbidity as compared to the control tube no. 3 is noted as a possible additive or synergistic effect of the neem extract with the antibiotic. In absence of such effect, the tubes may show growth matching with the control no. 4.
In case of a positive result, further sub-culturing was taken up, on solid media for colony counts with a calibrated loop. The colony counts could be noted by a semi quantitative method as 101 to 10^5 CFU/ml (Colony forming units). This is finally expressed as the percentage of killing as compared to the colony count obtained with control no. 4. Usually control tubes no. 3, 4 and 6 had similar colony counts.

Staphylococcus aureus [3] = experiment: Agar Dilution Method of Sensitivity testing, NE alone and NE + antibiotic; type: cell-based; conditions: resistant S. aureus cultures, 48 hours
Experimental: (§1) Two kinds of investigations were carried-out using these bacterial isolates—using an Agar Dilution Method of Sensitivity testing.
(§2) i) To ascertain whether, NE can work as an antibacterial substance on its own. For this purpose, a stock-solution of NE was prepared and was sterilized as described in the preliminary experiments.
(§3) ii) This stock-solution was dispensed into the culture medium (Mueller Hinton Agar) so as to provide while; the medium was in liquid form. Four different concentrations of NE, viz.
(§4) iii) This medium was poured into petri dishes and allowed to solidify. Resistant cultures were inoculated on to these plates and after incubation for 48 hours, the growth patterns were assessed.
(§5) iv) The experiments were run in triplicate, for each concentration—as per standard practices of microbiological testing procedures.
(§6) i) The culture medium (Mueller Hinton Agar) was melted and distributed into a number of test tubes.
(§7) ii) The stock solution of NE was dispensed into these test tubes in four different concentrations viz.
(§8) iii) In the same medium, one of the antibiotics under investigation was also added so as to provide a variable concentration (at break-even point concentration) as described below:
(§9) iv) The culture medium containing NE extract+the antibiotic were poured into petri dishes and allowed to solidify.
(§10) v) The resistant bacterial strains were inoculated onto these plates, incubated for 48 hours and the growth patterns were studied on each plate.
These cultures were obtained various clinical samples, such as sputum, non-healing infected wounds, throat swabs etc.

Klebsiella pneumoniae = experiment: as above; type: cell-based; conditions: 41 resistant K. pneumoniae strains, 48 hours
Experimental: as §1, §2, §3, §4, §5, §6, §7, §8, §9, §10
Under the same series of investigations, sensitization effect of NE was evaluated on resistant isolates of Klebsiella pneumoniae.

Escherichia coli = experiment: as above; type: cell-based; conditions: 37 resistant E. coli strains, 48 hours
Experimental: as §1, §2, §3, §4, §5, §6, §7, §8, §9, §10

Proteus mirabilis = experiment: Agar Dilution Method of Sensitivity testing, NE + antibiotic; type: cell-based; conditions: resistant Proteus mirabilis strains, 48 hours
Experimental: as §1, §6, §7, §8, §9, §10
The sensitization effect of NE was also examined on Proteus mirabilis strains resistant to Penicillin derivatives and quinolone derivative antibiotics.

Mixed Infections = experiment: Clinical study of NE tablets + antibiotic in non-responding infections
[4] = tested on: respiratory/surgical infections by bacteria resistant to the antibiotic; experiment: Clinical study of NE tablets + antibiotic in non-responding infections, all cases; conditions: NE tablets 100 mg twice a day + that antibiotic, 1-3 weeks
Staphylococcus aureus [5] = experiment: Clinical study of NE tablets + antibiotic in non-responding infections; conditions: NE tablets + antibiotic to which resistant
[6] = antibiotic at break-even point + NE 125 μg/mL
[7] = antibiotic at break-even point + NE 250 μg/mL
[8] = antibiotic at break-even point + NE 500 μg/mL
[9] = antibiotic at break-even point + NE 1000 μg/mL
[10] = Respiratory Infections, NE tablets + antibiotic to which resistant
[11] = all mixed infections resistant to the antibiotic, NE tablets + antibiotic

Compound: CC1(C)S[C@@H]2[C@H](NC(=O)[C@H](N)c3ccccc3)C(=O)N2[C@H]1C(=O)O [Ampicillin]
- MBC (Staphylococcus aureus [1]): > 128 µg/mL
- MIC (Staphylococcus aureus [1]): 64 µg/mL (≈ 183 µM)
- killing (Staphylococcus aureus [2]): 80% and 70%
- Growth Patterns after addition of NE: no. of cultures +++ (growth) (Staphylococcus aureus [3]; [6]): 34
- Growth Patterns after addition of NE: no. of cultures −−− (inhibition of growth) (Staphylococcus aureus [3]; [6]): 68
- Growth Patterns after addition of NE: no. of cultures +++ (growth) (Staphylococcus aureus [3]; [7]): 29
- Growth Patterns after addition of NE: no. of cultures −−− (inhibition of growth) (Staphylococcus aureus [3]; [7]): 73
- Growth Patterns after addition of NE: no. of cultures +++ (growth) (Staphylococcus aureus [3]; [8]): 26
- Growth Patterns after addition of NE: no. of cultures −−− (inhibition of growth) (Staphylococcus aureus [3]; [8]): 76
- Growth Patterns after addition of NE: no. of cultures +++ (growth) (Staphylococcus aureus [3]; [9]): 20
- Growth Patterns after addition of NE: no. of cultures −−− (inhibition of growth) (Staphylococcus aureus [3]; [9]): 82
- Growth Patterns after addition of NE: no. of cultures +++ (growth) (Klebsiella pneumoniae; [6]): 17
- Growth Patterns after addition of NE: no. of cultures −−− (inhibition of growth) (Klebsiella pneumoniae; [6]): 24
- Growth Patterns after addition of NE: no. of cultures +++ (growth) (Klebsiella pneumoniae; [7]): 17
- Growth Patterns after addition of NE: no. of cultures −−− (inhibition of growth) (Klebsiella pneumoniae; [7]): 24
- Growth Patterns after addition of NE: no. of cultures +++ (growth) (Klebsiella pneumoniae; [8]): 17
- Growth Patterns after addition of NE: no. of cultures −−− (inhibition of growth) (Klebsiella pneumoniae; [8]): 24
- Growth Patterns after addition of NE: no. of cultures +++ (growth) (Klebsiella pneumoniae; [9]): 17
- Growth Patterns after addition of NE: no. of cultures −−− (inhibition of growth) (Klebsiella pneumoniae; [9]): 24
- Growth Patterns after addition of NE: no. of cultures +++ (growth) (Escherichia coli; [6]): 31
- Growth Patterns after addition of NE: no. of cultures −−− (inhibition of growth) (Escherichia coli; [6]): 6
- Growth Patterns after addition of NE: no. of cultures +++ (growth) (Escherichia coli; [7]): 31
- Growth Patterns after addition of NE: no. of cultures −−− (inhibition of growth) (Escherichia coli; [7]): 6
- Growth Patterns after addition of NE: no. of cultures +++ (growth) (Escherichia coli; [8]): 31
- Growth Patterns after addition of NE: no. of cultures −−− (inhibition of growth) (Escherichia coli; [8]): 6
- Growth Patterns after addition of NE: no. of cultures +++ (growth) (Escherichia coli; [9]): 31
- Growth Patterns after addition of NE: no. of cultures −−− (inhibition of growth) (Escherichia coli; [9]): 6
- Growth Patterns after addition of NE: no. of cultures +++ (growth) (Proteus mirabilis; [6]): 7
- Growth Patterns after addition of NE: no. of cultures −−− (inhibition of growth) (Proteus mirabilis; [6]): 3
- Growth Patterns after addition of NE: no. of cultures +++ (growth) (Proteus mirabilis; [7]): 7
- Growth Patterns after addition of NE: no. of cultures −−− (inhibition of growth) (Proteus mirabilis; [7]): 3
- Growth Patterns after addition of NE: no. of cultures +++ (growth) (Proteus mirabilis; [8]): 7
- Growth Patterns after addition of NE: no. of cultures −−− (inhibition of growth) (Proteus mirabilis; [8]): 3
- Growth Patterns after addition of NE: no. of cultures +++ (growth) (Proteus mirabilis; [9]): 7
- Growth Patterns after addition of NE: no. of cultures −−− (inhibition of growth) (Proteus mirabilis; [9]): 3
- No. of Cases Gr.-I (Mixed Infections; [10]): 1
- No. of Cases Gr.-II (Mixed Infections; [10]): 1
- No. of Cases Gr.-II (Mixed Infections; Surgical Infections, NE tablets + antibiotic to which resistant): 1
- No. of cases with effective sensitization / complete response (Mixed Infections; [11]): 2
- No. of cases with partial response (Mixed Infections; [11]): one
- No. of cases with Grade-II response (complete clinical and bacteriological) [4]: 4

Compound: CC[C@H]1OC(=O)[C@H](C)[C@@H](O[C@H]2C[C@@](C)(OC)[C@@H](O)[C@H](C)O2)[C@H](C)[C@@H](O[C@@H]2O[C@H](C)C[C@H](N(C)C)[C@H]2O)[C@](C)(O)C[C@@H](C)/C(=N\OCOCCOC)[C@H](C)[C@@H](O)[C@]1(C)O [Roxythromycin]
- No. of Cases Gr.-I (Staphylococcus aureus [5]; Respiratory Infections): 1
- No. of Cases Gr-0 (Staphylococcus aureus [5]; Surgical Infections): 1
- No. of Cases Gr.-II (Staphylococcus aureus [5]; Surgical Infections): 2
- No. of cases with Grade-II response (complete clinical and bacteriological) [4]: 2
